# Earlier results as cited in patent publication US20100215725A1, “PHARMACEUTICAL COMPOSITION CONTAINING IDEBENONE FOR THE TREATMENT OF LIVER DISORDERS” (priority 2009, published 2010).
# System: rat liver microsomes
# Conditions: pro-oxidative system NADPH/ADP/Fe3+
row,Structure (SMILES),concentration offering complete protection against lipid peroxidation in microsomes [µmol/L]
1,COC1=C(OC)C(=O)C(C/C=C(\C)CC/C=C(\C)CC/C=C(\C)CC/C=C(\C)CC/C=C(\C)CC/C=C(\C)CC/C=C(\C)CC/C=C(\C)CC/C=C(\C)CCC=C(C)C)=C(C)C1=O [coenzyme Q-10],100
2,"COC1=C(OC)C(=O)C(CCCCCCCCCCO)=C(C)C1=O [Idebenone, 2,3-dimethoxy-5-methyl-6-(10-hydroxydecyl)-1,4-benzoquinone]",20
